Experimental findings from patent US7105501B2, “Compositions with vascular damaging activity” (Angiogene Pharmaceuticals Ltd., priority 2000, dated 2006) are described below.

One assay has as its system CaNT tumour vasculature. The experiment in a line: Activity against tumour vasculature measured by fluorescent dye (Hoechst 33342 functional vascular volume). It is filed as in vivo. Conditions: CaNT tumour-bearing mice, 24 hours after drug treatment. The procedure: Activity Against Tumour Vasculature Measured by Fluorescent Dye.
Tumour functional vascular volume in CaNT tumour-bearing mice was measured using the fluorescent dye Hoechst 33342 according to the method of Smith et al (Brit J Cancer 57, 247-253, 1988). At least three animals were used in control and treated groups. The fluorescent dye was dissolved in saline at 6.25 mg/ml and injected intravenously at 10 mg/kg 24 hours after drug treatment. One minute later, animals were killed and tumours excised and frozen; 10 μm sections were cut at 3 different levels and observed under UV illumination using an Olympus microscope equipped with epifluorescence. Blood vessels were identified by their fluorescent outlines and vascular volume was quantified using a point scoring system based on that described by Chalkley, (J Natl Cancer Inst, 4, 47-53, 1943). All estimates were based on counting a minimum of 100 fields from sections cut at the 3 different levels. The salts of the invention were more efficacious than their dihydrogen phosphate parent compounds.

The next assay has as its system CaNT tumours. Put plainly: Induction of tumour necrosis, CaNT tumours. The assay is classed as in vivo, Mice. As to conditions: tumours excised after 24 h, mean score 1-10, control 2.0. The protocol:
(§1) Induction of Tumour Necrosis
(§2) Mice bearing either CaNT or SaS tumours were treated with the test compound and tumours excised after 24 h, fixed in formalin, embedded in paraffin, sectioned and stained with haematoxylin and eosin. Sections were scored based on the estimated area of necrosis as follows:
(§3) Control tumours had mean scores of 2.0 (CaNT) and 1.0 (SaS). The salts of the invention were more efficacious than their dihydrogen phosphate parent compounds.

A further assay has as its system SaS tumours. The experiment in a line: Induction of tumour necrosis, SaS tumours. It is filed as in vivo, Mice. As to conditions: tumours excised after 24 h, mean score 1-10, control 1.0. The protocol:
as §1, §2, §3

`COc1cc(/C=C\c2ccc(C)c(OP(=O)(O)O)c2)cc(OC)c1OC` [(Z)-2-methyl-5-[2-(3,4-,5-trimethoxyphenyl)ethenyl]phenyl dihydrogen phosphate]: in the assay on CaNT tumour vasculature (dose 100 mg/kg), the “% Reduction in Vascular Volume” value was 28%. Also, in the assay with CaNT tumours (dose 100 mg/kg), the Necrosis score is on record as 5.3.

As to `COc1ccc(/C=C\c2cc(OC)c(OC)c(OC)c2)cc1OP(=O)(O)O` [Combretastatin A4 phosphate, combretastatin A4 phosphate], the “% Reduction in Vascular Volume” value with CaNT tumour vasculature (dose 100 mg/kg) is recorded as 26%. Moreover, the figures for the Necrosis score with SaS tumours (dose 500 mg/kg) and in the assay with CaNT tumours (dose 100 mg/kg) were 1.4 and 5.0, respectively.

With `COc1cc(/C=C\c2ccc(C)c(OP(=O)(O)O)c2)cc(OC)c1OC.NC(=N[N+](=O)[O-])NCCCC(N)C(=O)O` [Example 2, (Z)-2-methyl-5-[2-(3,4,5-trimethoxyphenyl)ethenyl]phenyl (1-carboxy-4-N′-nitroguanidinobutylammonium) hydrogen phosphate], the “% Reduction in Vascular Volume” value with CaNT tumour vasculature (dose 50 mg/kg) was 42%. In addition, the figures for the Necrosis score in the assay on SaS tumours (dose 100 mg/kg) and in the assay on CaNT tumours (dose 50 mg/kg) were 7.7 and 8.7, respectively.

`COC(=O)C(N)CCCNC(N)=N[N+](=O)[O-].COc1cc(/C=C\c2ccc(C)c(OP(=O)(O)O)c2)cc(OC)c1OC` [Example 5, (Z)-2-methyl-5-[2-(3,4,5-trimethoxyphenyl)ethenyl]phenyl (1-methoxycarbonyl-4-N′-nitroguanidinobutylammonium) hydrogen phosphate]: in the assay with CaNT tumour vasculature (dose 50 mg/kg), the “% Reduction in Vascular Volume” value is on record as 86%. For the same compound, the Necrosis score in the assay on CaNT tumours (dose 50 mg/kg) is 10.0.
